Assay results reported in US7446102B2, “Antibacterial amide macrocycles IV” (priority 2004, dated 2008).
pIC50: −log10 of the molar value. In brackets after ≈: the same amount, converted by molar mass. Where a name gives a salt, the structure may show the parent alone. Read-outs that look alike come from different tables or passages of the source.

How the values were obtained:
[1] = system: S. aureus 133; test: Systemic infection with S. aureus 133 (mouse sepsis model); type: in vivo; conditions: female CFW1 mice, i.p. infection, i.v. therapy 30 minutes after the infection, survival over 6 days
[2] = system: S. aureus T17; test: Determination of the minimum inhibitory concentration (MIC), biphenomycin-resistant S. aureus T17; type: cell-based; conditions: Staphylococcus aureus, biphenomycin-resistant strain, no visible bacterial growth, 18-24 h, 37° C., read-out: MIC S. aureus T17
Description: (§1) Determination of the Minimum Inhibitory Concentration (MIC)
(§2) The minimum inhibitory concentration (MIC) is the minimum concentration of an antibiotic with which the growth of a test microbe is inhibited over 18-24 h. The inhibitor concentration can in these cases be determined by standard microbiological methods (see, for example, The National Committee for Clinical Laboratory Standards. Methods for dilution antimicrobial susceptibility tests for bacteria that grow aerobically; approved standard-fifth edition. NCCLS document M7-A5 [ISBN 1-56238-394-9]. NCCLS, 940 West Valley Road, Suite 1400, Wayne, Pa. 19087-1898 USA, 2000). The MIC of the compounds of the invention is determined in the liquid dilution test on the 96-well microtitre plate scale. The bacterial microbes are cultivated in a minimal medium (18.5 mM Na2HPO4, 5.7 mM KH2PO4, 9.3 mM NH4Cl, 2.8 mM MgSO4, 17.1 mM NaCl, 0.033 μg/ml thiamine hydrochloride, 1.2 μg/ml nicotinic acid, 0.003 μg/ml biotin, 1% glucose, 25 μg/ml of each proteinogenic amino acid with the exception of phenylalanine; [H.-P. Kroll; unpublished]) with the addition of 0.4% BH broth (test medium). In the case of Enterococcus facium L4001, heat-inactivated fetal calf serum (FCS; GibcoBRL, Germany) is added to the test medium in a final concentration of 10%. Overnight cultures of the test microbes are diluted to an OD578 of 0.001 (to 0.01 in the case of enterococci) in fresh test medium, and incubated 1:1 with dilutions of the test substances (1:2 dilution steps) in test medium (200 μl final volume). The cultures are incubated at 37° C. for 18-24 hours; enterococci in the presence of 5% CO2.
(§3) The lowest substance concentration in each case at which no visible bacterial growth occurred any more is defined as the MIC.
(§4) Alternative Method for Determining the Minimum Inhibitory Concentration (MIC)
(§5) The minimum inhibitory concentration (MIC) is the minimum concentration of an antibiotic with which the growth of a test microbe is inhibited over 18-24 h. The inhibitor concentration can in these cases be determined by standard microbiological methods with modified medium in an agar dilution test (see, for example, The National Committee for Clinical Laboratory Standards. Methods for dilution antimicrobial susceptibility tests for bacteria that grow aerobically; approved standard-fifth edition. NCCLS document M7-A5 [ISBN 1-56238-394-9]. NCCLS, 940 West Valley Road, Suite 1400, Wayne, Pa. 19087-1898 USA, 2000). The bacterial microbes are cultivated on 1.5% agar plates which contain 20% defibrinated horse blood. The test microbes, which are incubated overnight on Columbia blood agar plates (Becton-Dickinson), are diluted in PBS, adjusted to a microbe count of about […] and placed dropwise (1-3 μl) on test plates. The test substances comprise different dilutions of the test substances (1:2 dilution steps). The cultures are incubated at 37° C. in the presence of 5% CO2 for 18-24 hours.
(§6) The lowest substance concentration in each case at which no visible bacterial growth occurred any more is defined as the MIC and is reported in μg/ml.
The S. aureus strain T17 is isolated in vivo. CFW1 mice are infected intraperitoneally with 4×10^7 S. aureus 133 cells per mouse. 0.5 h after the infection, the animals are treated intravenously with 50 mg/kg biphenomycin B. The kidneys are removed from the surviving animals on day 3 after the infection. After homogenization of the organs, the homogenates are plated out as described for RN4220Bi^R on antibiotics-free and antibiotics-containing agar plates and incubated at 37° C. overnight. […] About 20 of these colonies are tested for the biphenomycin B MIC, and a colony with an MIC of >50 μM is selected for further cultivation, and the strain is referred to as T17.

[3] = molecular target: S. aureus 133 translation; test: S. aureus in vitro transcription-translation assay (firefly luciferase, S30 extract); type: biochemical; conditions: 50% inhibition of the translation of firefly luciferase
Source text: In Vitro Transcription-Translation with S. aureus Extracts
Construction of an S. aureus Luciferase Reporter Plasmid
For the construction of a reporter plasmid which can be used in an in vitro transcription-translation assay from S. aureus the plasmid pBESTluc (Promega Corporation, USA) is used. The E. coli tac promoter present in this plasmid in front of the firefly luciferase is replaced by the capA1 promoter with appropriate Shine-Dalgarno sequence from S. aureus. The primers CAPFor 5′-[…] […] […]-3′ and CAPRev 5′-[…]-3′ are used for this. The primer CAPFor contains the capA1 promoter, the ribosome binding site and the 5′ region of the luciferase gene. After PCR using pBESTluc as template it is possible to isolate a PCR product which contains the firefly luciferase gene with the fused capA1 promoter. This is, after restriction with ClaI and HindIII, ligated into the vector pBESTluc which has likewise been digested with ClaI and HindIII. The resulting plasmid p1a is able to replicate in E. coli and be used as template in the S. aureus in vitro transcription-translation assay.
Preparation of S30 Extracts from S. aureus
Six liters of BHI medium are inoculated with a 250 ml overnight culture of an S. aureus strain and allowed to grow at 37° C. until the OD600 nm is 2-4. The cells are harvested by centrifugation and washed in 500 ml of cold buffer A (10 mM Tris acetate, pH 8.0, 14 mM magnesium acetate, 1 mM DTT, 1 M KCl). After renewed centrifugation, the cells are washed in 250 ml of cold buffer A with 50 mM KCl, and the resulting pellets are frozen at −20° C. for 60 min. The pellets are thawed on ice in 30 to 60 min and taken up in buffer B (10 mM Tris acetate, pH 8.0, 20 mM magnesium acetate, 1 mM DTT, 50 mM KCl) up to a total volume of 99 ml. 1.5 ml portions of lysostaphin (0.8 mg/ml) in buffer B are introduced into 3 precooled centrifuge cups and each is mixed with 33 ml of the cell suspension. The samples are incubated at 37° C., shaking occasionally, for 45 to 60 min, before 150 μl of a 0.5 M DTT solution are added. The lysed cells are centrifuged at 30 000×g and 4° C. for 30 min. The cell pellet is taken up in buffer B and then centrifuged again under the same conditions, and the collected supernatants are combined. The supernatants are centrifuged again under the same conditions, and 0.25 volumes of buffer C (670 mM Tris acetate, pH 8.0, 20 mM magnesium acetate, 7 mM Na3 phosphoenolpyruvate, 7 mM DTT, 5.5 mM ATP, 70 μM amino acids (complete from Promega), 75 μg of pyruvate kinase (Sigma, Germany))/ml are added to the upper ⅔ of the supernatant. The samples are incubated at 37° C. for 30 min. The supernatants are dialysed against 21 of dialysis buffer (10 mM Tris acetate, pH 8.0, 14 mM magnesium acetate, 1 mM DTT, 60 mM potassium acetate) in a dialysis tube with a 3500 Da cut-off with one buffer change at 4° C. overnight. The dialysate is concentrated to a protein concentration of about 10 mg/ml by covering the dialysis tube with cold PEG 8000 powder (Sigma, Germany) at 4° C. The S30 extracts can be stored in aliquots at −70° C.
Determination of the IC50 in the S. aureus In Vitro Transcription-Translation Assay
Inhibition of protein biosynthesis of the compounds can be shown in an in vitro transcription-translation assay. The assay is based on the cell-free transcription and translation of firefly luciferase using the reporter plasmid p1a as template and cell-free S30 extracts obtained from S. aureus. The activity of the resulting luciferase can be detected by luminescence measurement.
The amount of S30 extract or plasmid p1a respectively to be employed must be tested anew for each preparation in order to ensure an optimal concentration in the assay. 3 μl of the substance to be tested, dissolved in 5% DMSO, are introduced into an MTP. Then 10 μl of a suitably concentrated plasmid solution p1a are added. […]

[4] = system: E. faecium L4001; test: Determination of the minimum inhibitory concentration (MIC), E. faecium L4001; type: cell-based; conditions: Enterococcus faecium
Description: as §1, §2, §3, §4, §5, §6

[5] = system: S. aureus 133; test: Determination of the minimum inhibitory concentration (MIC), S. aureus 133; type: cell-based
Description: as §1, §2, §3, §4, §5, §6

[6] = L4001, read-out: MIC E. faecium L4001
[7] = Staphylococcus aureus, 133, read-out: MIC S. aureus 133
[8] = L4001, no visible bacterial growth, 18-24 h, 37° C., 5% CO2, read-out: MIC E. faecium L4001
[9] = Staphylococcus aureus, 133, no visible bacterial growth, 18-24 h, 37° C., read-out: MIC S. aureus 133

**Q.** NCCC[C@H](NC(=O)[C@@H]1Cc2cc(ccc2O)-c2ccc(O)c(c2)C[C@H](N)C(=O)N[C@@H](CCCN)C(=O)N1)C(=O)NCCN [Example 2, (8S,11S,14S)-14-Amino-N-((1S)-4-amino-1-{[(2-aminoethyl)amino]carbonyl}butyl)-11-(3-aminopropyl)-5,17-dihydroxy-10,13-dioxo-9,12-diazatricyclo[14.3.1.1^2,6]henicosa-1(20),2(21),3,5,16,18-hexaene-8-carboxamide tetra(hydrotrifluoroacetate)] was tested. Which “therapeutic effect ED100” value [1] did it give?
**A.** 1.25 mg/kg

**Q.** Which results are given for NCCC[C@@H]1NC(=O)[C@@H](N)Cc2cc(ccc2O)-c2ccc(O)c(c2)C[C@@H](C(=O)N[C@@H](C[C@@H](O)CN)C(=O)NCCN)NC1=O [Example 6, (8S,11S,14S)-14-Amino-N-((1S,3R)-4-amino-1-{[(2-aminoethyl)amino]carbonyl}-3-hydroxybutyl)-11-[3-aminopropyl]-5,17-dihydroxy-10,13-dioxo-9,12-diazatricyclo[14.3.1.1^2,6]henicosa-1(20),2(21),3,5,16,18-hexaene-8-carboxamide tetrahydrochloride]?
**A.** MIC [2]: 2 µg/mL; pIC50 [3]: 7.00; MIC [4, 6]: 8 µg/mL; MIC [5, 7]: 1 µg/mL

**Q.** For NCCC[C@H](NC(=O)[C@@H]1Cc2cc(ccc2O)-c2ccc(O)c(c2)C[C@H](N)C(=O)N[C@@H](CCCN)C(=O)N1)C(=O)NCCC[C@H](N)CC(=O)NCCN [Example 10, (8S,11S,14S)-14-Amino-N-{(1S)-4-amino-1-[({(4R)-4-amino-6-[(2-aminoethyl)amino]-6-oxohexyl}amino)carbonyl]butyl}-1-(3-aminopropyl)-5,17-dihydroxy-10,13-dioxo-9,12-diazatricyclo[14.3.1.1^2,6]henicosa-1(20),2(21),3,5,16,18-hexaene-8-carboxamide pentahydrochloride], which MIC [2] is on record?
**A.** 0.5 µg/mL

**Q.** What about the pIC50 [3] of the same compound?
**A.** 7.15

**Q.** And the MIC [4, 8]?
**A.** 8 µg/mL

**Q.** What about the MIC [5, 9] of the same compound?
**A.** 0.5 µg/mL

**Q.** For NCCC[C@H](NC(=O)[C@@H]1Cc2cc(ccc2O)-c2ccc(O)c(c2)C[C@H](N)C(=O)N[C@@H](CCCN)C(=O)N1)C(=O)N[C@@H](CCN)C(=O)NCCN [Example 13, (8S,11S,14S)-14-Amino-N-((1S)-4-amino-1-{[((1S)-3-amino-1-{[(2-aminoethyl)amino]carbonyl}propyl)amino]carbonyl}butyl)-11-(3-aminopropyl)-5,17-dihydroxy-10,13-dioxo-9,12-diazatricyclo[14.3.1.1^2,6]henicosa-1(20),2(21),3,5,16,18-hexaene-8-carboxamide pentahydrochloride], which MIC [2] is on record?
**A.** 0.5 µg/mL

**Q.** And the pIC50 [3]?
**A.** 7.22

**Q.** What about the MIC [4, 6] of the same compound?
**A.** 16 µg/mL

**Q.** What about the MIC [5, 7] of the same compound?
**A.** 0.5 µg/mL

**Q.** Which MIC [2] does the source give for N=C(N)NCCC[C@H](NC(=O)[C@@H]1Cc2cc(ccc2O)-c2ccc(O)c(c2)C[C@H](N)C(=O)N[C@@H](CCCN)C(=O)N1)C(=O)NCCN [Example 14, (8S,11S,14S)-14-Amino-N-((1S)-1-{[(2-aminoethyl)amino]carbonyl}-4-{[amino(imino)methyl]amino}butyl)-11-(3-aminopropyl)-5,17-dihydroxy-10,13-dioxo-9,12-diazatricyclo[14.3.1.1^2,6]henicosa-1(20),2(21),3,5,16,18-hexaene-8-carboxamide pentahydrochloride] here?
**A.** 2 µg/mL

**Q.** And the pIC50 [3]?
**A.** 7.15

**Q.** What about the MIC [4, 6] of the same compound?
**A.** 4 µg/mL

**Q.** What about the MIC [5, 7] of the same compound?
**A.** 1 µg/mL

**Q.** How did the MIC [2] turn out when NCCC[C@H](N)CNC(=O)[C@H](CCCN)NC(=O)[C@@H]1Cc2cc(ccc2O)-c2ccc(O)c(c2)C[C@H](N)C(=O)N[C@@H](CCCN)C(=O)N1 [Example 16, (8S,11S,14S)-14-Amino-N-[(1S)-4-amino-1-({[(2S)-2,5-diaminopentyl]amino}carbonyl)butyl]-11-(3-aminopropyl)-5,17-dihydroxy-10,13-dioxo-9,12-diazatricyclo[14.3.1.1^2,6]henicosa-1(20),2(21),3,5,16,18-hexaene-8-carboxamide tetrahydrochloride] was run?
**A.** 2 µg/mL

**Q.** What about the pIC50 [3] of the same compound?
**A.** 7.00

**Q.** And the MIC [4, 6]?
**A.** > 32 µg/mL

**Q.** What about the MIC [5, 7] of the same compound?
**A.** 2 µg/mL

**Q.** What does the source list for NCCC[C@@H]1NC(=O)[C@@H](N)Cc2cc(ccc2O)-c2ccc(O)c(c2)C[C@@H](C(=O)N[C@H](CO)CNC(=O)[C@@H](N)CCCN)NC1=O [Example 23]?
**A.** MIC [2]: 1 µg/mL (≈ 1.56 µM); pIC50 [3]: 6.49; MIC [4, 8]: 4 µg/mL (≈ 6.22 µM); MIC [5, 9]: 0.5 µg/mL (≈ 0.778 µM)
